Data published in US9968616B2, “Discovery of FDA-approved drugs as inhibitors of fatty acid binding protein 4 using molecular docking screening” (The Chinese University of Hong Kong, priority 2014, dated 2018).

Key:
human FABP4 = human FABP4 (Homo sapiens, UniProt P15090); assay: FABP4 Inhibitor/Ligand Screening Assay Kit, cell-free ligand displacement fluorescence-labeled probe assay; type: binding; conditions: for inhibition at 10 µM: read-out: % FABP4 inhibition (10 μM)
3T3-L1 cells [1] = assay: Adipolysis assay (glycerol release) in 3T3-L1 cells; type: cell-based, Mouse; conditions: 10 μM, FIG. 3B; for isoproterenol-stimulated adipolysis: isoproterenol 100 nM for 24 hours
Method: Mouse 3T3-L1 pre-adipocytes were cultured in Dulbecco's Modified Eagle's Medium (DMEM) supplemented with 10% fetal bovine serum, 100 units/ml penicillin and 100 μg/ml streptomycin at 37° C. in a humidified 95% air and 5% CO2 atmosphere. All cell culture reagents were purchased from Invitrogen (Carlsbad, Calif., USA). To initiate 3T3-L1 adipocyte differentiations, the standard differentiation cocktail (250 nM dexamethasone, 100 mM 3-isobutyl-1-methylxanthine and 175 nM human insulin, all purchased from Sigma, St. Louis, Mo.) was added to the medium after 2 days post-confluence. After 2 days, the medium was replaced with fresh complete medium containing insulin. Culture medium was changed every 2 days. Levofloxacin or benzbromarone (BBR) (Sigma, St. Louis, Mo.) was dissolved in DMSO and added to the medium at the beginning of pre-adipocyte differentiations. […] Confluent 3T3-L1 pre-adipocytes (day 0) were stimulated by the differentiation cocktail and cultured for 2 days with culture medium (Control), 10 μM of levofloxacin (Levofloxacin) or 10 μM benzbromarone (BBR). At day 2, the culture medium was collected and the extent of adipolysis was evaluated using Adipolysis Assay Kit (Cayman Chemical: 10009381, MI, US). During adipolysis, triglycerides are hydrolysed to release free fatty acids and glycerol. The amount of glycerol released into the medium as measured by the kit is proportional to the degree of adipolysis. Basal adipolysis and isoproterenol-induced adipolysis were studied. Isoproterenol was included as a positive control for screening pharmaceuticals that are known to regulate the adipolysis. Cells were treated with 100 nM of isoproterenol for 24 hours after the treatment with culture medium, levofloxacin or benzbromarone. Results were repeated at least three times from three independent experiments and presented as mean±SD, n=3 (FIG. 3B). The results were statistically analyzed by one-way ANOVA test. *, P<0.05; compared with the control group. #, P<0.05; compared with the isoproterenol-treated group.

3T3-L1 cells [2] = assay: Cell viability (MTT assay); type: cell-based, Mouse; conditions: 10 μM, regardless of the isoproterenol treatment, FIG. 3C
3T3-L1 cells [3] = conditions: 10 μM, reference 31; cited from earlier work
3T3-L1 cells [4] = assay: Oil Red O staining (induction of adipogenesis); type: cell-based, Mouse; conditions: 10 μM, days 0-6 of differentiation, versus control group, FIG. 3D
PPARγ = assay: Western blot detection of PPARγ protein level in 3T3-L1 cells; type: cell-based, Mouse; conditions: 10 μM, Day 6, cell lysate, FIG. 3E
Method: Mouse 3T3-L1 pre-adipocytes were cultured in Dulbecco's Modified Eagle's Medium (DMEM) supplemented with 10% fetal bovine serum, 100 units/ml penicillin and 100 μg/ml streptomycin at 37° C. in a humidified 95% air and 5% CO2 atmosphere. All cell culture reagents were purchased from Invitrogen (Carlsbad, Calif., USA). To initiate 3T3-L1 adipocyte differentiations, the standard differentiation cocktail (250 nM dexamethasone, 100 mM 3-isobutyl-1-methylxanthine and 175 nM human insulin, all purchased from Sigma, St. Louis, Mo.) was added to the medium after 2 days post-confluence. After 2 days, the medium was replaced with fresh complete medium containing insulin. Culture medium was changed every 2 days. Levofloxacin or benzbromarone (BBR) (Sigma, St. Louis, Mo.) was dissolved in DMSO and added to the medium at the beginning of pre-adipocyte differentiations.
As in the above Oil Red O Staining assay, cells were harvested on Day 6 and the total protein was collected for western blotting to estimate the PPARγ protein level in the treated 3T3-L1 cells. […] Specific bands were detected using […] (BCIP) and nitro blue tetrazolium (NBT) system (Bio-Rad, Hercules, Calif.) and photographed (FIG. 3E). […]

Chain of human FABP4 (P15090 whole entry): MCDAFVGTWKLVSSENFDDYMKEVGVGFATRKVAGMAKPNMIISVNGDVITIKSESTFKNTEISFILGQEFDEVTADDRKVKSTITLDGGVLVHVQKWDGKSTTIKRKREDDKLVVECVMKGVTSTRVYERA

| SMILES | inhibition at 10 µM (human FABP4) [%] | basal adipolysis (3T3-L1 cells [1]) | isoproterenol-stimulated adipolysis (3T3-L1 cells [1]) | proliferation/viability of 3T3-L1 cells (cytotoxicity) (3T3-L1 cells [2]) | other results |
| --- | --- | --- | --- | --- | --- |
| O=c1[nH]c2ccccc2n1C1CCN(CCCC(c2ccc(F)cc2)c2ccc(F)cc2)CC1 [Pimozide] | 47 ± 11.3 |  |  |  |  |
| CCc1oc2ccccc2c1C(=O)c1cc(Br)c(O)c(Br)c1 [BBR, benzbromarone] |  | inhibitory effects were also observed | inhibitory effects were also observed | not affected | adipolysis (literature report) (3T3-L1 cells [3]): inhibits the adipolysis |
| Cc1nc2n(c(=O)c1CCN1CCC(c3noc4cc(F)ccc34)CC1)CCCC2 [Risperidone] | 1.64 ± 12.9 |  |  |  |  |
| Cc1nc2n(c(=O)c1CCN1CCC(c3noc4cc(F)ccc34)CC1)CCCC2O (stereo not drawn) [Paliperidone] | 5.12 ± 6.9 |  |  |  |  |

Further lines, with some results ahead:

| inhibition at 10 µM (human FABP4) [%] | SMILES | basal adipolysis (3T3-L1 cells [1]) | isoproterenol-stimulated adipolysis (3T3-L1 cells [1]) | proliferation/viability of 3T3-L1 cells (cytotoxicity) (3T3-L1 cells [2]) | other results |
| --- | --- | --- | --- | --- | --- |
| 57.5 ± 12.2 | N[C@@H]1[C@H]2CN(c3nc4c(cc3F)c(=O)c(C(=O)O)cn4-c3ccc(F)cc3F)C[C@@H]12 [Trovafloxacin] |  |  |  |  |
| 70 ± 12.2 | C[C@H]1COc2c(N3CCN(C)CC3)c(F)cc3c(=O)c(C(=O)O)cn1c23 [Levofloxacin, (S)-9-fluoro-2,3-dihydro-3-methyl-10-(4-methylpiperazin-1-yl)-7-oxo-7H-pyrido[1,2,3-de]-1,4-benzoxazine-6-carboxylic acid] | inhibited | inhibited | not affected | IC50 (human FABP4; dose-response, Prism 5, read-out: IC50 FABP4 activity inhibition): 5.83 µM; lipid accumulation (red dots, Oil Red O) (3T3-L1 cells [4]): did not promote lipid accumulation; protein expression of PPARγ (PPARγ): did not increase |
